Reference: EP1508334B1, “Water soluble extract from plant of solanum genus and the preparation process thereof, and pharmaceutical composition containing the water soluble extract” (G & E Herbal Biotechnology Co., Ltd., priority 2003, dated 2005)

Columns and labels:
H441 = assay: MTS tetrazolium salt cytotoxicity assay; type: cell-based, human; details: different test concentrations / various dosages, 12 hrs, Fig. 8 and Fig. 12
Text: In order to determine whether the water-soluble extract obtained from the plant of Solanum genus according to this invention has anti-cancer activity, the principal cancer cells of Hep3B, H441, and MCF-7 were used as analytic targets, in which Hep3B and H441 were purchased from American Type Culture Collection (ATCC, P.O. Box 1549, Manassas, VA 20108 USA), and MCF-7 was purchased from Food Industry Research and Development Institute (331 Shih-Pin Road, Hsinchu, 300 Taiwan R.O.C.).
Hep3B was incubated in Dulbecco's Modified Eagle's medium (DMEM), while H441 and MCF-7 were incubated in RPMI-1640, both of the media containing 10% fetal bovine serum and 40 mg/L gentamycin.
The cytotoxicity of cancer cells was determined using tetrazolium salt assay (MTS, Mosmann. T., 1983, Immmunol. Meth., 65, 55-63), which was conducted for the colorimetric determination of cell viability according to the manufacturer's procedures (CellTiter 96™ AQ, Promega, Madison, USA).
Cells were seeded at 1x10^4 cells/well in a 96-well plate and incubated in 5% CO2 incubator at 37°C for at least 16 hrs. […] Upon completion of the reaction, absorbency in each well was determined at 490 nm by using ELISA reader 312e, Bio-TEK. Each value was expressed as means ± SD from three experiments.
Cytotoxicity was determined by MTS tetrazolium salt assay disclosed in Pharmacological assay 1. […]

[1] = Dissolution in water (applicant's observations); type: physicochemical; details: for direct dissolution in water: compounds purified by HPLC from the water-soluble extract; for concentration at which precipitated: in water after being first dissolved in DMSO; for dissolution in water: without DMSO pre-treatment
TNF receptor I = details: cited from earlier work
[2] = tested on: human PLC/PRF/5 hepatoma cells; details: cited from earlier work
Biomphalaria glabrata = details: cited from earlier work
[3] = tested on: normal skin fibroblast cells; details: cited from earlier work
Rhizoctomia solani = details: cited from earlier work
Manduca sexta = details: cited from earlier work
Phoma medicaginis = details: cited from earlier work
Tribolium castaneum = details: cited from earlier work
Lymnaea cubensis = details: cited from earlier work
JTC-26 = details: cited from earlier work
Hep3B = details: cited from earlier work
Trypanosoma cruzi = details: cited from earlier work

Row | Structure (SMILES) | inhibiting the growth of H441 (H441) | direct dissolution in water [1] | concentration at which precipitated [1] | dissolution in water [1] | gene expression of TNF receptor I (TNF receptor I) | growth of human PLC/PRF/5 hepatoma cells [2] | inhibiting growth of Biomphalaria glabrata (Biomphalaria glabrata) | death of cells by apoptosis pathway [3] | inhibiting growth of Rhizoctomia solani (Rhizoctomia solani) | inhibiting growth of Manduca sexta (Manduca sexta) | inhibiting growth of Phoma medicaginis (Phoma medicaginis) | inhibiting growth of Tribolium castaneum (Tribolium castaneum) | inhibiting growth of Lymnaea cubensis (Lymnaea cubensis) | growth of JTC-26 (JTC-26) | death of cells by apoptosis pathway (Hep3B) | inhibiting growth of Trypanosoma cruzi (Trypanosoma cruzi)
1 | C[C@@H]1CC[C@@]2(NC1)O[C@H]1C[C@H]3[C@@H]4CC=C5C[C@@H](O[C@@H]6O[C@H](CO)[C@H](O)[C@H](O[C@@H]7O[C@H](CO)[C@@H](O)[C@H](O)[C@H]7O)[C@H]6O[C@@H]6O[C@@H](C)[C@H](O)[C@@H](O)[C@H]6O)CC[C@]5(C)[C@H]4CC[C@]3(C)[C@H]1[C@@H]2C [solasonine] | effectively inhibited | directly dissolved in water | more than 5 mg/ml | could not dissolve in water | – | – | – | – | – | – | – | – | – | – | – | –
2 | C[C@@H]1CC[C@@]2(NC1)O[C@H]1C[C@H]3[C@@H]4CC=C5C[C@@H](O[C@@H]6O[C@H](CO)[C@@H](O[C@@H]7O[C@@H](C)[C@H](O)[C@@H](O)[C@H]7O)[C@H](O)[C@H]6O[C@@H]6O[C@@H](C)[C@H](O)[C@@H](O)[C@H]6O)CC[C@]5(C)[C@H]4CC[C@]3(C)[C@H]1[C@@H]2C [solamargine] | effectively inhibited | directly dissolved in water | more than 5 mg/ml | could not dissolve in water | up-regulated | inhibits the growth | capable of inhibiting growth | increases death of cells | capable of inhibiting growth | capable of inhibiting growth | capable of inhibiting growth | capable of inhibiting growth | capable of inhibiting growth | inhibits the growth | increases death of cells | capable of inhibiting growth
